2 compounds from patent US9415032B2, “Membrane activated chelators and use in the prevention and treatment of parasitic infection” (THE JOHNS HOPKINS UNIVERSITY, priority 2011, dated 2016) can be followed below.

Read-outs that look alike come from different tables or passages of the source.

Assay type in all cases: cell-based
One assay relates to P. falciparum. Nature of the assay: antimalarial cytotoxicity assay ([3H]hypoxanthine), malaria-infected RBC. The settings on record: Plasmodium falciparum. On the procedure:
FIG. 2 is set of graphs showing the percentage of P. falciparum killed by MACs of the present invention as a function of drug concentration. Malaria-infected RBC were incubated with DP-b99 (A and B).
FIG. 3 is a graph showing the percentage of P. falciparum killed by MACs of the present invention as a function of drug concentration.
Malaria. Because of the importance of calcium signaling in mammalian cells and recent findings that interference with host cell signaling pathways to subvert the host intracellular milieu may be an important mechanism for the malaria parasite's survival, it was thought that MACs might be toxic to malarial parasite within host cells (i.e. RBCs, hepatocytes). It was investigated whether MAC compounds of the present invention would be able to kill intracellular malaria parasites. An established antimalarial cytotoxicity assay developed in Dr. Theresa Shapiro's laboratory (JHU) (Tetrahedron, 1997; 53(1):37-50) was used with the following modifications: (1) Parasitemia was maintained at 0.1% to 5% by thrice weekly change of medium and replenishment of human erythrocytes; (2) [^3H]hypoxanthine (10-30 Ci/mmol, 1.0 mCi/mL was used in aqueous solution, (Perkin-Elmer NET177001MC), diluted to 25 μCi/mL with medium; and as for the trypanosome experiments (3) the cytotoxicity assays for two MAC compounds of the present invention, DP-b99 and DP-460 (DPharm, Ltd., Rehovot Ill.), included 10 concentrations based on stock solutions (50.0 mg/mL) of each compound that were prepared in sterile HPLC-grade water.

Assay [1] has as its system T. b. brucei 427 or T. b. rhodesiense IL1852. Nature of the assay: trypanosome cytotoxicity assay in vitro. The settings on record: Trypanosoma brucei, by 24 hours, BSF trypanosomes, read-out: effective concentration of drug to kill 50% (EC50) of the parasites. The method, then:
(§1) FIG. 1 illustrates the effect of MACs of the present invention on human brain microvascular endothelial cell (BMEC) monolayers interaction with trypanosomes. (A) Human BMEC pretreated with 20 μM DP-b99 impeded parasite transmigration across this barrier (t-5 hours, n=3). […] The data are represented as average TEER or migration±S.E. (n=4; p<0.05). (B) BSF trypanosomes were incubated with DP-b99 or DP460. The average percent (n=4) of parasites killed after 24 hours is plotted against drug concentration.
(§2) African Trypanosomes: The MAC compound of the present invention, DP-b99, as a chelator of Ca^2+ and Zn^2+ was tested to determine whether it would tighten the BBB to trypanosome traversal based on the concepts described above. In pilot parasite/BBB transmigration experiments, bloodstream form Trypanosoma brucei rhodesiense (Tbr) IL1852 were incubated in Transwell inserts containing human brain microvascular endothelial cell (BMEC) monolayers pretreated for 60 minutes with DP-b99, then washed free of drug. In a parallel experiment, human BMEC grown on gold-coated electrode ECIS arrays, were similarly treated with the MAC compound. When compared to the untreated control group, T. b. rhodesiense transmigration across a human BMEC barrier was impeded 60% after 5 hours incubation (FIG. 1A). […]

The subject of assay [2] is bloodstream form Trypanosoma brucei rhodesiense (Tbr) IL1852 transmigration across human BMEC barrier. Put plainly: parasite/BBB transmigration across human BMEC monolayers in Transwell inserts. The settings on record: BMEC pretreated 60 minutes with 20 μM DP-b99, washed free of drug; after 5 hours incubation. On the procedure: as §1, §2
Assay [3] concerns human brain microvascular endothelial cell (BMEC) monolayers. Nature of the assay: ECIS transendothelial electrical resistance (TEER) of human BMEC during infection. Conditions: BMEC pretreated with 20 μM DP-b99. On the procedure: as §1, §2
Where [4] appears, read: pilot experiments, read-out: concentration range found to kill P. falciparum.

As to `CCCCCCCCCCCCOCCOC(=O)CN(CC(=O)O)c1ccccc1OCCOc1ccccc1N(CC(=O)O)CC(=O)OCCOCCCCCCCCCCCC` [DP-460], the EC50 in the assay on P. falciparum (R^2=0.995 (FIG. 3), read-out: EC50, P. falciparum killed) was 28 µM; in the assay on P. falciparum (setting [4]), 21 to 28 µM; in assay [1], around 39 µM.
For the compound `CCCCCCCCOCCOC(=O)CN(CC(=O)O)c1ccccc1OCCOc1ccccc1N(CC(=O)O)CC(=O)OCCOCCCCCCCC` [DP-b99], the values for the EC50 (in the assay with P. falciparum (setting [4]); in assay [1]) were 21 to 28 µM and around 87 µM, respectively. In addition, the “T. b. rhodesiense transmigration across a human BMEC barrier impeded, compared to untreated control” value in assay [2] came to 60%. Moreover, the “barrier tightness of human BMEC during the infection (ECIS TEER)” value in assay [3] was “maintained a tighter barrier”.
